Tests used:
[1] = Oral bioavailability in C57BL6 mouse at 5 mg/kg; assay type: ADME, organism-based; details: in vivo
[2] = target: Bile salt export pump (Homo sapiens, UniProt O95342); assay: Inhibition of BSEP (unknown origin)
[3] = target: T1, Bile acid receptor (Mus musculus) (UniProt Q60641); assay: Agonist activity at LBD-fused mouse FXR in HEK293 cells incubated for 30 min by envision plate reader method relative to GW2064; assay type: cell-based; details: filed as agonist
T1 sequence (whole entry): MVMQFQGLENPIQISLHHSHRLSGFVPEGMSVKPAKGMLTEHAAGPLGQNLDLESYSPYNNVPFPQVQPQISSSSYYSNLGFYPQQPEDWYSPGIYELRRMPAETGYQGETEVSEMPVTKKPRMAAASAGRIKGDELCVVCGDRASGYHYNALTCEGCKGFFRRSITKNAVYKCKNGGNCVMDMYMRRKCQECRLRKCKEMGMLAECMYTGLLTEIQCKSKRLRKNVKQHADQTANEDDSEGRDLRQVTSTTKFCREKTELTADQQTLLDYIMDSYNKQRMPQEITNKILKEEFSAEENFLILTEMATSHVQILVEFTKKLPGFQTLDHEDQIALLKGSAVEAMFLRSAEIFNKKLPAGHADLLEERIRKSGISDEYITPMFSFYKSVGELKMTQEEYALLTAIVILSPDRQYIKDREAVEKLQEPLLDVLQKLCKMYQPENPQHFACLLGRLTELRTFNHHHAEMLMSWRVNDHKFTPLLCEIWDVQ

[4] = Genotoxicity in Salmonella typhimurium by Ames test; assay type: toxicity; details: salmonella enterica subsp. enterica serovar typhimurium
[5] = target: T2, Bile acid receptor (Homo sapiens, UniProt Q96RI1); assay: Agonist activity at Gal4-fused human FXR in HEK293 cells incubated for 15 min by luciferase reporter assay; assay type: cell-based
T2 sequence (Q96RI1 whole entry): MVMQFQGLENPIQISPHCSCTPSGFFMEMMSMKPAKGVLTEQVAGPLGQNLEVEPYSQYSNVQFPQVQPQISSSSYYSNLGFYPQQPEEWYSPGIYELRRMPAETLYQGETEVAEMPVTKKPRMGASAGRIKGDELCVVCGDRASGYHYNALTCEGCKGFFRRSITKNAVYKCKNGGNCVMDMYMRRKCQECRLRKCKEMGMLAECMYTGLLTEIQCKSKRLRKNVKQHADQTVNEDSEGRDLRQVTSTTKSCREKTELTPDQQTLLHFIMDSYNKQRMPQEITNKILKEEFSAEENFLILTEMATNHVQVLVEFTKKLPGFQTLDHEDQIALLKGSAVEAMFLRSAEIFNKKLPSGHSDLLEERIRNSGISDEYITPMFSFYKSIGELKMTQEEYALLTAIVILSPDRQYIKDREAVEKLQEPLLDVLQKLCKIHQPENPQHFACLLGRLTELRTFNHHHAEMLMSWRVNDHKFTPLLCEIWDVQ

[6] = target: Cytochrome P450 3A4 (Homo sapiens, UniProt P08684); assay: Inhibition of CYP3A4 in human liver microsomes using fluorogenic substrate preincubated for 15 min followed by NADPH addition measured after 2 hrs by fluorescence based assay; assay type: ADME, Microsome
Sequence of Cytochrome P450 3A4 (P08684 whole entry): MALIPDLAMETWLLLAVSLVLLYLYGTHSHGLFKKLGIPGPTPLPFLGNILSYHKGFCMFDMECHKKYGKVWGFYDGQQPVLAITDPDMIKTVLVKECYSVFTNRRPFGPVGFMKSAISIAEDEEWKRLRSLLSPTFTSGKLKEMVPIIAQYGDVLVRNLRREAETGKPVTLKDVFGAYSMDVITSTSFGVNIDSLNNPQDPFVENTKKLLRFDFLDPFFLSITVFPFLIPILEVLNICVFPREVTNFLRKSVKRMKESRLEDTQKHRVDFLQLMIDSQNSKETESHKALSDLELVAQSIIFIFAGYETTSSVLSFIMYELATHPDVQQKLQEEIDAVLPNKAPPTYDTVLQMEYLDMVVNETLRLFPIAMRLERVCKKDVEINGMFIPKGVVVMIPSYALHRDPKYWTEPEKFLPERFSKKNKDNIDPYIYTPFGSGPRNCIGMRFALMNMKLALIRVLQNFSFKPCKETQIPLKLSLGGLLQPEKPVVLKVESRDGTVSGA

[7] = tested on: Mus musculus; assay: Antifibrotic activity against bile duct ligation-induced liver cholestasis C57BL/6NTac mouse model assessed as reduction in collagen level administered orally as single dose for 9 days and measured after 24 hrs post-last dose by picrosirius red staining method; assay type: functional, organism-based; details: dose 0.3-10 mg/kg, route po, time 9.0 day, DDE = dose-dependent effect
[8] = target: Cytochrome P450 2C9 (Homo sapiens, UniProt P11712); assay: Inhibition of recombinant CYP2C9 (unknown origin) using fluorogenic substrate preincubated for 15 min followed by NADPH addition measured after 2 hrs by fluorescence method; assay type: ADME
Sequence of Cytochrome P450 2C9 (P11712 whole entry, the tested form may be a part): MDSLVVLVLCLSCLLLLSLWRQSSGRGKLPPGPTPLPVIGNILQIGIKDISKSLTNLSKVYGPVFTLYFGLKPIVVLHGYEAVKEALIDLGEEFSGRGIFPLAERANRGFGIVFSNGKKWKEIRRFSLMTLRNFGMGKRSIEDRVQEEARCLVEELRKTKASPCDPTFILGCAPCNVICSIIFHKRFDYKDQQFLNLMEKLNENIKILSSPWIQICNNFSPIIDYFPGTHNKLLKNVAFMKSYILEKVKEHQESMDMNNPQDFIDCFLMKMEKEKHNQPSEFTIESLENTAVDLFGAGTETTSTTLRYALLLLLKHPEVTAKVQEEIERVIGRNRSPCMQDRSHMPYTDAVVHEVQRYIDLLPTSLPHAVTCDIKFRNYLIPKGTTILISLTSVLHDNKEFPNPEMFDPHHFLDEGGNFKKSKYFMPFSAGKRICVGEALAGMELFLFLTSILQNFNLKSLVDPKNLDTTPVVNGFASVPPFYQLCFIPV

[9] = target: T3, Bile acid receptor (Mus musculus, UniProt Q60641); assay: Agonist activity at mouse LBD fused FXR in HEK293 cells incubated for 30 min by envision plate reader method; assay type: cell-based
T3 sequence (Q60641 whole entry): T1 sequence (whole entry)

[10] = target: T4, Cytochrome P450 2C19 (Homo sapiens, UniProt P33261); assay: Inhibition of CYP2C19 in human liver microsomes using fluorogenic substrate preincubated for 15 min followed by NADPH addition measured after 2 hrs by fluorescence based assay; assay type: ADME, Microsome
T4 sequence (P33261 whole entry, the tested form may be a part): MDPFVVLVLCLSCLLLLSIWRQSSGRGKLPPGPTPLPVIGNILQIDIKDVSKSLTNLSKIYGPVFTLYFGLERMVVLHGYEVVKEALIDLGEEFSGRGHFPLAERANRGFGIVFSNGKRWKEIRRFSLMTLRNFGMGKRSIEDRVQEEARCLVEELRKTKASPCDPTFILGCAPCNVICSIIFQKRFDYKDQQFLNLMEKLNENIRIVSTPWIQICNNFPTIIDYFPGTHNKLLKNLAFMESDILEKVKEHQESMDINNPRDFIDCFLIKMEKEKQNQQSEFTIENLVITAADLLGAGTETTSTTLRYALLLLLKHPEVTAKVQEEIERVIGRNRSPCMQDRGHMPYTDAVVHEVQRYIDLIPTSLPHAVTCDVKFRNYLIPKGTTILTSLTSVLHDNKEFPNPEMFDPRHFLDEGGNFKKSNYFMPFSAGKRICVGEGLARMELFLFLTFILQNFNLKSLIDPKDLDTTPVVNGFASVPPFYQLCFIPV

[11] = target: T5, Bile acid receptor (Homo sapiens) (UniProt Q96RI1); assay: Agonist activity at LBD-fused human FXR in HEK293 cells incubated for 30 min by envision plate reader method relative to GW2064; assay type: cell-based; details: filed as agonist
T5 sequence (whole entry): T2 sequence (Q96RI1 whole entry)

[12] = Volume of distribution at steady state in C57BL6 mouse at 1 mg/kg, iv; assay type: ADME, organism-based; details: in vivo, read-out: Vdss
[13] = target: T4, Cytochrome P450 2C19; assay: Inhibition of recombinant CYP2C19 (unknown origin) using fluorogenic substrate preincubated for 15 min followed by NADPH addition measured after 2 hrs by fluorescence method; assay type: ADME
[14] = Half life in Sprague-Dawley rat at 1 mg/kg, iv; assay type: ADME, organism-based; details: in vivo
[15] = Clearance in Sprague-Dawley rat at 1 mg/kg, iv; assay type: ADME, organism-based; details: in vivo
[16] = Metabolic stability in mouse liver microsome assessed as parent compound remaining at […] measured after 10 mins; assay type: ADME; details: liver microsomes, read-out: Stability
[17] = target: Voltage-gated inwardly rectifying potassium channel KCNH2 (Homo sapiens, UniProt Q12809); assay: Inhibition of hERG by patch clamp assay; assay type: toxicity
Sequence of Voltage-gated inwardly rectifying potassium channel KCNH2 (Q12809 whole entry): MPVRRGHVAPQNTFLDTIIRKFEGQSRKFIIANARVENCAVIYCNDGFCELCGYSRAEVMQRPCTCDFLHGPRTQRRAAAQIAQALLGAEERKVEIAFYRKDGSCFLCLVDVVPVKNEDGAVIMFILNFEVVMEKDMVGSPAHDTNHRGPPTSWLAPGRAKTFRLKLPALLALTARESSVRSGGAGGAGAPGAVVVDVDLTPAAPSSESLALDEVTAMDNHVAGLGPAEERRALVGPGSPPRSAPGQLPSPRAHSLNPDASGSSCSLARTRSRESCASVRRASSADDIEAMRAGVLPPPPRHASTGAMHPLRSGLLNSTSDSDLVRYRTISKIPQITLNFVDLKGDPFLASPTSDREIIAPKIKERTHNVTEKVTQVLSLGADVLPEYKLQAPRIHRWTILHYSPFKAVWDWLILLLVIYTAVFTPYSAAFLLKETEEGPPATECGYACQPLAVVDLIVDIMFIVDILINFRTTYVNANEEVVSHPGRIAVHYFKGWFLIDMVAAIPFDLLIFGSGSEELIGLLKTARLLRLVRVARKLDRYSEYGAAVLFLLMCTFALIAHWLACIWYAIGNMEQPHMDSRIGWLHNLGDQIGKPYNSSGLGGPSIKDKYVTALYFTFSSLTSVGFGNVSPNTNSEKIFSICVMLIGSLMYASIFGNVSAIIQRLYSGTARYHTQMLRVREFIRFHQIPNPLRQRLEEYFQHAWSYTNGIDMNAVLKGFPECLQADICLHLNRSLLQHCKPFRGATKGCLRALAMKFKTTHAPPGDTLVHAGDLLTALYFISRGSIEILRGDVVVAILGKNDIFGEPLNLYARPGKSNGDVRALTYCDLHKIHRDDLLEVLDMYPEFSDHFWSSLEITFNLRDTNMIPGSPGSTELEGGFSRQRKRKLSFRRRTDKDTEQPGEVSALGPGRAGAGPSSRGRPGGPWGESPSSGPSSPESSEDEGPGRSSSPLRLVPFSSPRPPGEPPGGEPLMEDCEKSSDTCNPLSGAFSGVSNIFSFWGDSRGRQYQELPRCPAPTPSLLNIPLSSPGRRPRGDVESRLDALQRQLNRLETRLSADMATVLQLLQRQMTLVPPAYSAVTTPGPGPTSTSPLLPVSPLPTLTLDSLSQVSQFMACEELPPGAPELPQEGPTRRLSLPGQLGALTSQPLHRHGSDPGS

[18] = target: T6, Nuclear receptor subfamily 1 group I member 2 (Homo sapiens, UniProt O75469); assay: Transactivation of PXR (unknown origin) relative to refampicin; assay type: ADME
T6 sequence (O75469 whole entry): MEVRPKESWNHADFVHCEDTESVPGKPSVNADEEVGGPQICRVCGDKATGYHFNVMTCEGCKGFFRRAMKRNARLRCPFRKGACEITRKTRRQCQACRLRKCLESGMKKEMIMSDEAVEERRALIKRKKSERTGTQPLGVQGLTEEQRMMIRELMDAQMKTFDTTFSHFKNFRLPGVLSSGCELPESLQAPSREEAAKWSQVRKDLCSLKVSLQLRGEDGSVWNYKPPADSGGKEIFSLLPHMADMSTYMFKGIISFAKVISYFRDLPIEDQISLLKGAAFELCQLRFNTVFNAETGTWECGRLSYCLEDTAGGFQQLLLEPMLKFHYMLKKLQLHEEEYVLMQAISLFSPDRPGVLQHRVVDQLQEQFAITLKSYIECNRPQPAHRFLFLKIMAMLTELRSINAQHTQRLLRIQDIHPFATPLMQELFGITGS

[19] = target: T6, Nuclear receptor subfamily 1 group I member 2; assay: Transactivation of PXR (unknown origin); assay type: ADME
[20] = Metabolic stability in rat liver microsome assessed as parent compound remaining at […] measured after 10 mins; assay type: ADME; details: liver microsomes, read-out: Stability
[21] = target: T2, Bile acid receptor; assay: Agonist activity at LBD fused human FXR in HEK293 cells incubated for 30 min by envision plate reader method; assay type: cell-based
[22] = AUC (total) in Sprague-Dawley rat at 1 mg/kg, iv; assay type: ADME, organism-based; design: dose 1 mg/kg, route iv; details: in vivo
[23] = Oral bioavailability in Sprague-Dawley rat at 2 mg/kg; assay type: ADME, organism-based; details: in vivo
[24] = AUC (total) in Sprague-Dawley rat at 2 mg/kg, po; assay type: ADME, organism-based; design: dose 2 mg/kg, route po; details: in vivo
[25] = Half life in C57BL6 mouse at 1 mg/kg, iv; assay type: ADME, organism-based; details: in vivo
[26] = Volume of distribution at steady state in Sprague-Dawley rat at 1 mg/kg, iv; assay type: ADME, organism-based; details: in vivo, read-out: Vdss
[27] = AUC (total) in C57BL6 mouse at 5 mg/kg, po; assay type: ADME, organism-based; design: dose 5 mg/kg, route po; details: in vivo

Sequence of Bile salt export pump (O95342 whole entry, the tested form may be a part): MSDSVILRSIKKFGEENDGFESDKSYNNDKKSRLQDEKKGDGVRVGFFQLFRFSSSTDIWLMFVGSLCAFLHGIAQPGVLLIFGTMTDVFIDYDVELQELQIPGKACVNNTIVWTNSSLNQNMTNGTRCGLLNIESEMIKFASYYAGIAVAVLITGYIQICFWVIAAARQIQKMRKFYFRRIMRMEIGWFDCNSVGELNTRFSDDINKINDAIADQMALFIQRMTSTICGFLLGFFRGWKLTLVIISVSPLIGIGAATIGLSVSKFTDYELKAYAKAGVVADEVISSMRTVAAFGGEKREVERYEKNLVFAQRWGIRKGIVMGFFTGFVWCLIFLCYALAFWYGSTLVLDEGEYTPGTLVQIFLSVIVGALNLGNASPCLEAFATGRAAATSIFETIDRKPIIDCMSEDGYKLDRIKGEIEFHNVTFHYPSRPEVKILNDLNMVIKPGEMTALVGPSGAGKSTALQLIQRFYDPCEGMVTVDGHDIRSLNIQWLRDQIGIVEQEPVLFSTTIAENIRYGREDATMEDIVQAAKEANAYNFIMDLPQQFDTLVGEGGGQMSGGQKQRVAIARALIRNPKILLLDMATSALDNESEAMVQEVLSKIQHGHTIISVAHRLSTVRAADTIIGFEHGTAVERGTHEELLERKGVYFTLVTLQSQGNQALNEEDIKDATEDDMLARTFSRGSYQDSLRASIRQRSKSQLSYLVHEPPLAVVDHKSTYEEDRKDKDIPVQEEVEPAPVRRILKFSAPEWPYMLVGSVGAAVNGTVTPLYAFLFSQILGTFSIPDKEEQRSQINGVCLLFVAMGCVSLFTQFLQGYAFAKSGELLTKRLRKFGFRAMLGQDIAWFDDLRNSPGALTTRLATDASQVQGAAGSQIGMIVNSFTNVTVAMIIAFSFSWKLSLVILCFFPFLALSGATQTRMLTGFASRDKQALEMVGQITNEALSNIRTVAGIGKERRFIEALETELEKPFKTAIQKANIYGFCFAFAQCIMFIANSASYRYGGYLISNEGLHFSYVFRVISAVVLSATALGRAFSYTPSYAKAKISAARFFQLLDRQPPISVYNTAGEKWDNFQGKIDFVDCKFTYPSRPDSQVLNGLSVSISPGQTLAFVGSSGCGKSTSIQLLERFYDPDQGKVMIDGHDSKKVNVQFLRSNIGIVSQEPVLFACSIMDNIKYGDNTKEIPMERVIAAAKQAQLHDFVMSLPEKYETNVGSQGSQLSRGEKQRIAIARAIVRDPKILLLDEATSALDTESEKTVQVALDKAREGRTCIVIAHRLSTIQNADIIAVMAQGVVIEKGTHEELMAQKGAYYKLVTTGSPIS

- bioavailability [1]: 69%
- Emax [3]: 601%
- EC50 [5]: 0.034 µM
- IC50 [6]: > 20 µM
- IC50 [8]: 5 µM
- EC50 [9]: 0.014 µM
- IC50 [10]: > 20 µM
- Emax [11]: 189%
- Vd [12]: 2.2 L/kg
- IC50 [13]: 7 µM
- half-life [14]: 18 h
- clearance [15]: 4 mL/min/kg
- remaining at 10 min [16]: 90%
- Emax [18]: 11%
- EC50 [19]: 50 µM
- remaining at 10 min [20]: 93%
- EC50 [21]: 0.042 µM
- AUC [22]: 6.6 µM·h
- bioavailability [23]: 40%
- AUC [24]: 5.8 µM·h
- half-life [25]: 16 h
- Vd [26]: 5.2 L/kg
- AUC [27]: 56.6 µM·h
Structure (SMILES): CC(C)(O)c1ccc(-c2cccc(N(CC34CCC(c5noc(C(C)(C)F)n5)(CC3)CC4)C(=O)[C@H]3C[C@](O)(C(F)(F)F)C3)c2)cc1
- IC50 [2]: 1.4 µM
- Activity [4]: Non-Toxic
- Activity [7]: Dde
- IC50 [17]: 4.5 µM
